# Legend:
# Assay type in all cases: in vivo, BALB/c mice
# [1] = system: CT-26 tumors; assay: Immune cell composition of CT-26 tumors by flow cytometry after 7 days of dosing; conditions: for percentage of dendritic cells (CD45, CD11c positive) in tumors: FIG. 7b; for regulatory T cells (CD45, CD4, FoxP3, CD25 positive) in tumors: versus vehicle, FIG. 7a; for percentage of activated T cells (CD45, CD3, CD8) by CD25 expression in tumors: FIG. 7c
# Experimental: The immune cell composition of Compound X (the compound as described in Example 15, above) as a single agent and combined with a mouse anti-PD1 antibody was evaluated in the CT-26 mouse colon adenocarcinoma model grown in BALB/c mice. Mice were inoculated subcutaneously in the right flank with 5×10^5 tumor cells. When tumors reached an average size of 85 mm^3 dosing was initiated. The dosing regimens in the 4 separate cohorts comprising 10 mice each are listed as follows:
# After dosing animals for 7 days, tumors were resected and used to prepare single cell suspensions. Live cells representing tumor and immune cells were stained with cocktails of antibodies targeting multiple immune cell markers (anti-CD45, anti-CD3, anti-CD4, anti-CD8, anti-CD25, anti-FoxP3, anti-PD-1, anti-CD11c) conjugated to different fluorescent tags. The stained cells were fixed in 4% paraformaldehyde and quantified using a multi-color flow cytometer (Fortessa). The data was analyzed with FloJo software.
# [2] = system: CT-26 mouse colon adenocarcinoma model; assay: Antitumor activity in the CT-26 mouse colon adenocarcinoma model, Compound X with or without anti-PD-1 (10 mice per cohort); conditions: for tumor growth kinetics during the treatment period: versus single agent anti-PD-1; for tumor growth kinetics during the period of dosing: versus vehicle
# Experimental: The antitumor activity of Compound X as a single agent and combined with a mouse anti-PD-1 antibody was evaluated in the CT-26 mouse colon adenocarcinoma model grown in BALB/c mice. Mice were inoculated subcutaneously in the right flank with 5×10^5 tumor cells. When tumors reached an average size of 71 mm^3 (6 days after tumor cell inoculation) dosing was initiated. The dosing regimens in the 8 separate cohorts comprising 10 mice each are as follows: […]
# [3] = system: CT-26 mouse colon adenocarcinoma model; assay: Antitumor activity in the CT-26 mouse colon adenocarcinoma model, additional experiment (7 mice per cohort); conditions: FIG. 5
# Experimental: The antitumor activity of Compound X as a single agent and combined with a mouse anti-PD1 antibody was evaluated in the CT-26 mouse colon adenocarcinoma model grown in BALB/c mice in an additional experiment. Mice were inoculated subcutaneously in the right flank with 5×10^5 tumor cells. When tumors reached an average size of 91 mm^3 dosing was initiated. The dosing regimens in the 4 separate cohorts comprising 7 mice each are as follows: […]
# [4] = system: 4T1 mouse breast cancer model; assay: Antitumor activity in the 4T1 mouse breast cancer model, additional experiment with anti-PD1 (7 mice per cohort); conditions: FIG. 6
# Experimental: The antitumor activity of Compound X as a single agent and combined with a mouse anti-PD1 antibody was evaluated in the 4T1 mouse breast cancer model grown in BALB/c mice in an additional experiment. Mice were inoculated subcutaneously in the right flank with 3×10^5 tumor cells. When tumors reached an average size of 97 mm^3 dosing was initiated. The dosing regimens in the 4 separate cohorts comprising 7 mice each are as follows: […]
# [5] = system: 4T1 mouse breast cancer model; assay: Antitumor activity in the 4T1 mouse breast cancer model, Compound X with or without anti-CTLA4; conditions: for tumor growth kinetics during the period of dosing: FIG. 3
# Experimental: The antitumor activity of Compound X (the compound as described in Example 15, above) as a single agent and combined with a mouse anti-CTLA4 antibody was evaluated in the 4T1 mouse breast cancer model grown in BALB/c mice. Mice were inoculated subcutaneously in the right flank with 3×10^5 tumor cells. When tumors reached an average size of 100 mm^3 (7 days after tumor cell inoculation) dosing was initiated.
# [6] = single agent: Compound X 15 mg/kg BID x7 days po or anti-PD-1 10 mg/kg Q3D x3 ip
# [7] = Compound X 15 mg/kg BID in combination with anti-CTLA4
smiles,measurement,setting,value
C[C@H](NC(=O)c1cc(Cl)cnc1Oc1cccc(F)c1)c1ccc(C(=O)O)cc1 [Compound X],"percentage of dendritic cells (CD45, CD11c positive) in tumors",[1]; Compound X 15 mg/kg BID dosed with anti-PD-1 10 mg/kg Q3D,increased percentage
same,"regulatory T cells (CD45, CD4, FoxP3, CD25 positive) in tumors",[1]; combination of Compound X 15 mg/kg BID and anti-PD-1 10 mg/kg Q3D,significant decrease
same,"percentage of activated T cells (CD45, CD3, CD8) by CD25 expression in tumors",[1]; combination of Compound X 15 mg/kg BID with anti-PD-1 10 mg/kg Q3D,increased percentage
same,"percentage of activated T cells (CD45, CD3, CD8) by CD25 expression in tumors",[1]; either agent dosed alone,did not
same,"percentage of dendritic cells (CD45, CD11c positive) in tumors",[1]; [6],increased percentage
same,"regulatory T cells (CD45, CD4, FoxP3, CD25 positive) in tumors",[1]; [6],significant decrease
same,mice still alive 99 days after tumor inoculation,[2]; Compound X 15 mg/kg BID in combination with anti-PD-1,5 out of 10
same,growth kinetics after treatment was discontinued,"[2]; Compound X 15 mg/kg BID in combination with anti-PD-1, FIG. 1",decreased growth kinetics relative to anti-PD-1
same,survival after treatment was discontinued,"[2]; Compound X 15 mg/kg BID in combination with anti-PD-1, FIG. 2",improved survival
same,tumor free mice 99 days after tumor inoculation,"[2]; Compound X 15 mg/kg BID in combination with anti-PD-1, of 10 mice",4
same,tumor growth kinetics during the treatment period,[2]; Compound X 15 mg/kg BID p.o. combined with anti-PD-1 10 mg/kg i.p.,not notably different mice treated with single agent anti-PD-1
same,tumor growth kinetics during the period of dosing,"[2]; Compound X 15 mg/kg BID p.o., single agent, FIG. 1",not notably different from the vehicle treated mice
same,tumor growth kinetics during the treatment period,[2]; Compound X 15 mg/kg QD p.o. combined with anti-PD-1 10 mg/kg i.p.,not notably different mice treated with single agent anti-PD-1
same,tumor growth kinetics during the period of dosing,"[2]; Compound X 15 mg/kg QD p.o., single agent, FIG. 1",not notably different from the vehicle treated mice
same,mice still alive and tumor free 99 days after tumor inoculation,[2]; single agent,1 out of 10
same,tumor growth kinetics during the period of dosing,"[3]; Compound X 15 mg/kg BID combined with anti-PD1 10 mg/kg BIW ip, versus single agents",lower than mice treated with either single agent
same,tumor growth kinetics during the period of dosing,"[3]; single agent: Compound X 15 mg/kg BID po or anti-PD1 10 mg/kg BIW ip, versus vehicle",less than that of the vehicle group
same,tumor growth kinetics during the period of dosing,[4]; Compound X 15 mg/kg BID combined with anti-PD1 10 mg/kg BIW ip,lower than mice treated with either single agent
same,tumor growth kinetics during the period of dosing,"[4]; Compound X 15 mg/kg BID po, single agent",less than that of the vehicle group and anti-PD1 when dosed alone
same,mice still alive 47 days after tumor inoculation,[5]; [7],7 of 10
same,mice still alive at the end of the study 55 days after tumor inoculation,[5]; [7],3 of 10
same,survival rate after treatment was discontinued,"[5]; Compound X 15 mg/kg BID in combination with anti-CTLA4, FIG. 4",improved survival rate relative to either single agent alone
same,tumor growth kinetics during the period of dosing,"[5]; Compound X and anti-CTLA4 combined, versus either agent alone",decreased relative to either agent when dosed alone
same,mice alive 47 days after tumor inoculation,[5]; single agent alone,none
same,tumor growth kinetics during the period of dosing,"[5]; single agent: Compound X 15 mg/kg BID or anti-CTLA4, versus vehicle",decreased relative to the vehicle treated mice

# Source: US20210300921A1, “EP4 INHIBITORS AND SYNTHESIS THEREOF” (Arrys Therapeutics, Inc., priority 2018, published 2021)
